# Test results taken from the supplement of paper PMC9663587.
# Experiments:
# [1] = compound: COc1ccc2c(c1)[C@]1(C[C@H]1c1ccc3c(/C=C/c4ccc(CN5C[C@@H](C)O[C@@H](C)C5)cc4)n[nH]c3c1)C(=O)N2
# Paclitaxel = compound: CC(=O)O[C@H]1C(=O)[C@@]2(C)[C@H]([C@H](OC(=O)c3ccccc3)[C@]3(O)C[C@H](OC(=O)[C@H](O)[C@@H](NC(=O)c4ccccc4)c4ccccc4)C(C)=C1C3(C)C)[C@]1(OC(C)=O)CO[C@@H]1C[C@@H]2O [Paclitaxel]
# Tivantinib/ARQ197 = compound: O=C1NC(=O)[C@@H](c2cn3c4c(cccc24)CCC3)[C@@H]1c1c[nH]c2ccccc12 [Tivantinib/ARQ197]
# Ceritinib/LDK378 = compound: Cc1cc(Nc2ncc(Cl)c(Nc3ccccc3S(=O)(=O)C(C)C)n2)c(OC(C)C)cc1C1CCNCC1 [Ceritinib/LDK378]
# LEE011/Ribociclib [2] = compound: T1, CN(C)C(=O)c1cc2cnc(Nc3ccc(N4CCNCC4)cn3)nc2n1C1CCCC1 [LEE011/Ribociclib]
# Volasertib/BI6727 = compound: CC[C@@H]1C(=O)N(C)c2cnc(Nc3ccc(C(=O)N[C@H]4CC[C@H](N5CCN(CC6CC6)CC5)CC4)cc3OC)nc2N1C(C)C [Volasertib/BI6727]
# Taselisib/GDC0032 = compound: Cc1nc(-c2cn3c(n2)-c2ccc(-c4cnn(C(C)(C)C(N)=O)c4)cc2OCC3)n(C(C)C)n1 [Taselisib/GDC0032]
# [3] = compound: CCN1CCN(Cc2ccc(Nc3ncc(F)c(-c4cc(F)c5nc(C)n(C(C)C)c5c4)n3)nc2)CC1
# THZ531 = compound: CN(C)C/C=C/C(=O)Nc1ccc(C(=O)N2CCC[C@@H](Nc3ncc(Cl)c(-c4c[nH]c5ccccc45)n3)C2)cc1 [THZ531]
# Neratinib/HKI272 [4] = compound: T2, CCOc1cc2ncc(C#N)c(Nc3ccc(OCc4ccccn4)c(Cl)c3)c2cc1NC(=O)/C=C/CN(C)C [Neratinib/HKI272]
# Pictilisib/GDC0941 = compound: CS(=O)(=O)N1CCN(Cc2cc3nc(-c4cccc5[nH]ncc45)nc(N4CCOCC4)c3s2)CC1 [Pictilisib/GDC0941]
# INK128/MLN0128 = compound: CC(C)n1nc(-c2ccc3oc(N)nc3c2)c2c(N)ncnc21 [INK128/MLN0128]
# BSJ-03-123 [5] = compound: T3, CC(=O)c1c(C)c2cnc(Nc3ccc(N4CCN(CCOCCOCCOCCNC(=O)COc5cccc6c5C(=O)N(C5CCC(=O)NC5=O)C6=O)CC4)cn3)nc2n(C2CCCC2)c1=O [BSJ-03-123]
# ABT-737 = compound: CN(C)CC[C@H](CSc1ccccc1)Nc1ccc(S(=O)(=O)NC(=O)c2ccc(N3CCN(Cc4ccccc4-c4ccc(Cl)cc4)CC3)cc2)cc1[N+](=O)[O-] [ABT-737]
# LEE011/Ribociclib [6] = compound: T1, LEE011/Ribociclib; experiment: GR value, 72 h; higher = faster growth (1 = untreated, <0 = killing);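 further: breast cancer and non-malignant breast epithelial lines, nine half-log doses, viable cells counted by Hoechst and LIVE/DEAD dye imaging versus time-zero plates and DMSO controls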
# [7] = compound: CCN1CCN(Cc2ccc(Nc3ncc(F)c(-c4cc(F)c5nc(C)n(C(C)C)c5c4)n3)nc2)CC1; experiment: as above
# Neratinib/HKI272 [8] = compound: T2, Neratinib/HKI272; experiment: as above
# BSJ-03-123 [9] = compound: T3, BSJ-03-123; experiment: as above
# YKL-5-124 = compound: C=CC(=O)Nc1ccc(C(=O)Nc2[nH]nc3c2CN(C(=O)N[C@H](CN(C)C)c2ccccc2)C3(C)C)cc1 [YKL-5-124]; experiment: as above
# [10] = compound: CCc1cnn2c(NCc3ccc[n+]([O-])c3)cc(N3CCCC[C@H]3CCO)nc12; experiment: as above
# 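Wherever GR50, 72 h is given: breast cancer and non-malignant breast epithelial cell lines, Deep Dye Drop or Dye Drop imaging, nine half-log doses, GR normalized to time-zero plates and DMSO-only controls.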
cell line,measurement,setting,value
MDAMB231,"GR50, 72 h",[1],0.00366 µM
same,"GR50, 72 h",Paclitaxel,0.00232 µM
same,"GR50, 72 h",Tivantinib/ARQ197,0.416 µM
same,"GR50, 72 h",Ceritinib/LDK378,0.866 µM
same,"GR50, 72 h",LEE011/Ribociclib [2],0.995 µM
same,"GR50, 72 h",Volasertib/BI6727,0.00436 µM
same,"GR50, 72 h",Taselisib/GDC0032,2.2 µM
same,"GR50, 72 h",[3],0.0468 µM
same,"GR50, 72 h",THZ531,0.245 µM
same,"GR50, 72 h",Neratinib/HKI272 [4],1.43 µM
same,"GR50, 72 h",Pictilisib/GDC0941,5.32 µM
same,"GR50, 72 h",INK128/MLN0128,0.0218 µM
same,"GR50, 72 h",BSJ-03-123 [5],0.731 µM
same,"GR50, 72 h",ABT-737,3.03 µM
same,GR value,LEE011/Ribociclib [6]; 0.001 µM,0.792 GR
same,GR value,LEE011/Ribociclib [6]; 0.003162 µM,0.835 GR
same,GR value,LEE011/Ribociclib [6]; 0.01 µM,0.747 GR
same,GR value,LEE011/Ribociclib [6]; 0.03162 µM,0.762 GR
same,GR value,LEE011/Ribociclib [6]; 0.1 µM,0.673 GR
same,GR value,LEE011/Ribociclib [6]; 0.3162 µM,0.617 GR
same,GR value,LEE011/Ribociclib [6]; 1 µM,0.569 GR
same,GR value,LEE011/Ribociclib [6]; 3.162 µM,0.466 GR
same,GR value,LEE011/Ribociclib [6]; 10 µM,0.215 GR
same,GR value,[7]; 0.001 µM,0.942 GR
same,GR value,[7]; 0.003162 µM,0.859 GR
same,GR value,[7]; 0.01 µM,0.699 GR
same,GR value,[7]; 0.03162 µM,0.513 GR
same,GR value,[7]; 0.1 µM,0.289 GR
same,GR value,[7]; 0.3162 µM,0.169 GR
same,GR value,[7]; 1 µM,0.0774 GR
same,GR value,[7]; 3.162 µM,-0.187 GR
same,GR value,[7]; 10 µM,-0.492 GR
same,GR value,Neratinib/HKI272 [8]; 0.0003162 µM,1.03 GR
same,GR value,Neratinib/HKI272 [8]; 0.001 µM,0.999 GR
same,GR value,Neratinib/HKI272 [8]; 0.003162 µM,0.978 GR
same,GR value,Neratinib/HKI272 [8]; 0.01 µM,1.05 GR
same,GR value,Neratinib/HKI272 [8]; 0.03162 µM,1.03 GR
same,GR value,Neratinib/HKI272 [8]; 0.1 µM,1.01 GR
same,GR value,Neratinib/HKI272 [8]; 0.3162 µM,0.917 GR
same,GR value,Neratinib/HKI272 [8]; 1 µM,0.688 GR
same,GR value,Neratinib/HKI272 [8]; 3.162 µM,-0.0968 GR
same,GR value,BSJ-03-123 [9]; 0.001 µM,0.926 GR
same,GR value,BSJ-03-123 [9]; 0.003162 µM,0.889 GR
same,GR value,BSJ-03-123 [9]; 0.01 µM,0.828 GR
same,GR value,BSJ-03-123 [9]; 0.03162 µM,0.779 GR
same,GR value,BSJ-03-123 [9]; 0.1 µM,0.69 GR
same,GR value,BSJ-03-123 [9]; 0.3162 µM,0.644 GR
same,GR value,BSJ-03-123 [9]; 1 µM,0.466 GR
same,GR value,BSJ-03-123 [9]; 3.162 µM,0.478 GR
same,GR value,BSJ-03-123 [9]; 10 µM,-0.156 GR
same,GR value,YKL-5-124; 0.001 µM,0.388 GR
same,GR value,YKL-5-124; 0.003162 µM,0.284 GR
same,GR value,YKL-5-124; 0.01 µM,0.2 GR
same,GR value,YKL-5-124; 0.03162 µM,0.144 GR
same,GR value,YKL-5-124; 0.1 µM,0.101 GR
same,GR value,YKL-5-124; 0.3162 µM,0.0485 GR
same,GR value,YKL-5-124; 1 µM,0.0611 GR
same,GR value,YKL-5-124; 3.162 µM,0.0322 GR
same,GR value,YKL-5-124; 10 µM,-0.182 GR
same,GR value,[10]; 0.0001 µM,0.921 GR
same,GR value,[10]; 0.0003162 µM,0.995 GR
same,GR value,[10]; 0.001 µM,0.966 GR
same,GR value,[10]; 0.003162 µM,0.93 GR
same,GR value,[10]; 0.01 µM,0.51 GR
same,GR value,[10]; 0.03162 µM,-0.288 GR
same,GR value,[10]; 0.1 µM,-0.361 GR
same,GR value,[10]; 0.3162 µM,-0.372 GR
same,GR value,[10]; 1 µM,-0.426 GR
